We go through 4 compounds from US20110040088A1, “FUSED HETEROCYCLIC COMPOUNDS” (priority 2003, published 2011).

Read-outs that look alike come from different tables or passages of the source.

Assay [1] addresses T1, human recombinant 5-HT2C receptor (Homo sapiens, UniProt P28335).
T1 sequence (P28335 33-458): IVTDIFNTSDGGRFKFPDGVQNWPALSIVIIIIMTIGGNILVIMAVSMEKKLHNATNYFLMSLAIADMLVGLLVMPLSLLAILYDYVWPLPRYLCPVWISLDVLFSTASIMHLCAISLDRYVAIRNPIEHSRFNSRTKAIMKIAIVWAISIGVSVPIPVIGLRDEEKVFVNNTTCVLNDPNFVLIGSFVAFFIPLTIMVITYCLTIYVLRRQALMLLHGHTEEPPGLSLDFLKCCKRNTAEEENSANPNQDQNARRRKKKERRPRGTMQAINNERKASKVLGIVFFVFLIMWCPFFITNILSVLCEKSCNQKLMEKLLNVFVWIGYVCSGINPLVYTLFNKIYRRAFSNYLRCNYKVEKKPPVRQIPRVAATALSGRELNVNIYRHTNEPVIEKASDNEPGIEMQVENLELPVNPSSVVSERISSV
In words: 5-HT2C receptor radioligand binding ([3H]mesulergine, CHO membranes).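 Further: competitive displacement of the tritiated ligand, using membranes from CHO cells stably transfected with the human receptor.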

The target in assay [2] is human recombinant 5-HT2B receptor (Homo sapiens, UniProt P41595). The experiment in a line: 5-HT2B receptor radioligand binding ([3H]mesulergine, CHO membranes).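 Further: competitive displacement binding on membranes of CHO cells stably expressing the receptor.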
Sequence of human recombinant 5-HT2B receptor (P41595 whole entry): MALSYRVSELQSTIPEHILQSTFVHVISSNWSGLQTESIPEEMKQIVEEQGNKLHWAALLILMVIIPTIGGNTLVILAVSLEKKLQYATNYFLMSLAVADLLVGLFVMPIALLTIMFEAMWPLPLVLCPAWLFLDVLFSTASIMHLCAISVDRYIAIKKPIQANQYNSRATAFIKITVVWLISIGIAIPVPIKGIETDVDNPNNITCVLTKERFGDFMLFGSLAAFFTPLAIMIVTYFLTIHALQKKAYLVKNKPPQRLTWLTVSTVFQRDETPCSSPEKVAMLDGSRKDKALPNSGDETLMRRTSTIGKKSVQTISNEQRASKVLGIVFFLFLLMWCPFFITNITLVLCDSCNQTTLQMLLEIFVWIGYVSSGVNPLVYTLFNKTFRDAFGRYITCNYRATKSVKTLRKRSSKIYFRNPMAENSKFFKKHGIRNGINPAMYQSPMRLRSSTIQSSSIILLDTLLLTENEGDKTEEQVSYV
Method: Affinity for 5HT2 Receptor Binding Sites
Receptor binding was performed using the human recombinant 5-HT2A (GB: X57830), 5-HT2B (GB: Z36748) and 5-HT2c (GB: M81778) receptors. The affinity of the compounds for the 3 different human 5-HT2 receptor subtypes was evaluated by competitive radioligand binding assays using [^3H]ketanserin (h5-HT2A) or [^3H]mesulergine (h5-HT2B and h5-HT2c). The assays were performed on membranes prepared from NIH3T3 stably transfected with h5-HT2A or CHO stably transfected with h5-HT2B and h5-HT2C.
For assay [3], the target named is T2, rat 5-HT7a receptor (Rattus norvegicus, UniProt P32305).
T2 construct: expressed in transfected cells
T2 sequence (P32305 whole entry): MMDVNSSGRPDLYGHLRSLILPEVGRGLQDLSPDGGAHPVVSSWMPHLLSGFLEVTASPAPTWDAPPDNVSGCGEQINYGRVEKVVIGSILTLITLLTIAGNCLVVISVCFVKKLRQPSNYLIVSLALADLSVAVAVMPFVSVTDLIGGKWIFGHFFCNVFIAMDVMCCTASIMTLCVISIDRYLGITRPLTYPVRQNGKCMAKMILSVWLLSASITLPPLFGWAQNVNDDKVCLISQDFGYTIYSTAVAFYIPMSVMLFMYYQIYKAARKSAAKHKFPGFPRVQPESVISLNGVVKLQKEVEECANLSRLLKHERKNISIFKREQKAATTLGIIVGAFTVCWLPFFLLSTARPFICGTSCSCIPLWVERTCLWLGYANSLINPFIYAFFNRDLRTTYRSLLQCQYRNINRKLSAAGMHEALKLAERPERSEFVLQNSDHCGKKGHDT
The experiment in a line: 5-HT7 receptor radioligand binding ([3H]5-CT, membranes of transfected HEK-293 cells). Particulars: rat 5-HT7a in HEK-293 membranes, 1 nM [3H]5-CT.

For assay [4], the target named is T2, rat 5-HT7a receptor. In words: Adenylyl cyclase assay (5-CT-stimulated cAMP) in r5-HT7a/HEK-293 cells. Format: cell-based. How it is done: 2. Effect on Adenylyl Cyclase Activity
In vitro functional properties of the compounds described in this invention were evaluated in an adenylyl cyclase assay. HEK-293 cells stably tranfected with the rat 5-HT7a receptor were plated into 96-well plates. Cells were washed with 200 μL DNEM/F12 and incubated for 10 min with 80 μL of 2 mM 3-isobutyl-1-methylxanthine. Compounds (10 μL) were added for another 10 min. Subsequently, 5-CT (10 μL) was added. After 20 min the incubation was stopped by the addition of 20 μL of 0.5 N HCl. Plates were incubated at 4° C. for 30 min. Twenty μL of the supernatant were assayed for cAMP content with a commercially available kit (Perkin Elmer) using ^125I-cAMP. Sigmoidal curves of best fit were calculated by nonlinear regression analysis using GrapPad Prism.
5-CT-stimulated adenylyl cyclase activity in r5-HT7a/HEK-293 cells was inhibited by Example 59 with an estimated pKB˜8 in good agreement with the Ki value determined from [^3H]5-CT binding studies.

For the next assay, the target named is 5-HT2A receptor (UniProt P28223). In words: 5-HT2A receptor radioligand binding ([3H]ketanserin).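 Further: competitive displacement binding on membranes, either from rat cerebral cortex or from NIH3T3 cells stably expressing human 5-HT2A.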 The note with it: read-out: Ki 5-HT2A, table does not say whether rat cortex or human recombinant (NIH3T3) receptor.

As to `Clc1ccc(-c2nn(Cc3ccccc3)c3c2CCNCC3)cc1` [Example 59, 1-Benzyl-3-(4-chloro-phenyl)-1,4,5,6,7,8-hexahydro-1,2,6-triaza-azulene], the Ki in assay [1] was determined as 74 nM; in assay [2] it was 160 nM; on rat 5-HT7a receptor [3], 6 nM; on 5-HT2A receptor, 280 nM. Moreover, the Kb on rat 5-HT7a receptor [4] (r5-HT7a/HEK-293 cells, estimated) is ~10 nM.
`CN1CCc2c(c(-c3ccc(Cl)cc3)cn2Cc2ccccc2)C1` [Example 38, 1-Benzyl-3-(4-chloro-phenyl)-5-methyl-4,5,6,7-tetrahydro-1H-pyrrolo[3,2-c]pyridine]: the Kb on rat 5-HT7a receptor [4] (printed in the Ki 5-HT7 column of Table 1, read-out: pKb 5-HT7 (converted)) was 15.8 nM.
As for `Clc1ccc(-c2nn(Cc3cccs3)c3c2CCNCC3)cc1` [Example 103, 3-(4-Chloro-phenyl)-1-thiophen-2-ylmethyl-1,4,5,6,7,8-hexahydro-1,2,6-triaza-azulene], the Ki in assay [1] stood at 150 nM; in assay [2], 44 nM; at rat 5-HT7a receptor [3], 7.7 nM; at 5-HT2A receptor, 60 nM.
Turning to `CCC(CC)n1nc2c(c1-c1ccc(F)c(C)c1)CCNCC2` [Example 283, 2-(1-Ethyl-propyl)-3-(4-fluoro-3-methyl-phenyl)-2,4,5,6,7,8-hexahydro-1,2,6-triaza-azulene], the inhibitory constant (Ki) in assay [1] stood at 150 nM; in assay [2], 60 nM; on rat 5-HT7a receptor [3] it was 5000 nM; at 5-HT2A receptor it was 10 nM.
